# Source: patent US10696672B2 (Pliant Therapeutics, Inc., priority 2016, dated 2020)
# Biological target: recombinant human integrin αvβ6 (Homo sapiens (Human), UniProt P06756+P18564)
# Experiment: Solid phase integrin αvβ6 binding assay
# Details: plate-coated integrin; recombinant TGFβ1 LAP 0.67 ug/ml as ligand; 2 hours at 25° C.; read-out: αvβ6 Inhibition IC50 (nM) - range
# Experimental: Example B1—Solid Phase Integrin αvβ6 Binding Assay
# Microplates were coated with recombinant human integrin αvβ6 (2 ug/ml) in PBS (100 ul/well 25° C., overnight). The coating solution was removed, washed with wash buffer (0.05% Tween 20; 0.5 mM MnCl2; in 1×TBS). Plate was blocked with 200 ul/well of Block Buffer (1% BSA; 5% sucrose; 0.5 mM MnCl2; in 1×TBS) at 37° C. for 2 h. Dilutions of testing compounds and recombinant TGFβ1 LAP (0.67 ug/ml) in binding buffer (0.05% BSA; 2.5% sucrose; 0.5 mM MnCl2; in 1×TBS) were added. The plate was incubated for 2 hours at 25° C., washed, and incubated for 1 hour with Biotin-Anti-hLAP. Bound antibody was detected by peroxidase-conjugated streptavidin. The IC50 values for testing compounds were calculated by a four-parameter logistic regression.
# The compounds tested were compound samples prepared according to procedures described in the Synthetic Examples section, with the stereochemical purity as indicated in the Examples indicated.
# Chain of recombinant human integrin αvβ6 (P06756 31-992): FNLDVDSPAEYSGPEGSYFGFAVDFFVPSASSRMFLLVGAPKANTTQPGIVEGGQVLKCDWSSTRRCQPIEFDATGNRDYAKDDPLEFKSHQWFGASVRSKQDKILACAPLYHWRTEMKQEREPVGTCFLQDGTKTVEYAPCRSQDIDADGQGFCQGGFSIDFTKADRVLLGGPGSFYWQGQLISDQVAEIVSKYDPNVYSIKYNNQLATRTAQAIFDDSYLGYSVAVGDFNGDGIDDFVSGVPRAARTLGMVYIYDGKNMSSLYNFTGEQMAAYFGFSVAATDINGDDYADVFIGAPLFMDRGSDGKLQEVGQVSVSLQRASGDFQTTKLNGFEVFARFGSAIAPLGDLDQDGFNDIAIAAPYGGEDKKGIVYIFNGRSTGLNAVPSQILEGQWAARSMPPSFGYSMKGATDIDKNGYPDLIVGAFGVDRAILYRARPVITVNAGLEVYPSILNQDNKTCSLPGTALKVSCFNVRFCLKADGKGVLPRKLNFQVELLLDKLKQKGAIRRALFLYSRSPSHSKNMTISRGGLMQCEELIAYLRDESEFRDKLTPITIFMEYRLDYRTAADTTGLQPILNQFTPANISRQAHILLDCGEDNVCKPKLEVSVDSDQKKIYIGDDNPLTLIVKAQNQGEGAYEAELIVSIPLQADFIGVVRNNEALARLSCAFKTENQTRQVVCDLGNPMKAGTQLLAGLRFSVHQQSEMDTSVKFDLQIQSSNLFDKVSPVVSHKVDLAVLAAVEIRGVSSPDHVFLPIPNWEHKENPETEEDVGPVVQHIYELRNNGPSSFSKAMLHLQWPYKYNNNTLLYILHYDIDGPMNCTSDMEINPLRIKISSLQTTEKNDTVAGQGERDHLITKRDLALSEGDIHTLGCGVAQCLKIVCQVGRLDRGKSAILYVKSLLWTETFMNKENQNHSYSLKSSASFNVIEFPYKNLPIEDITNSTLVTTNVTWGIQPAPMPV
# Chain of recombinant human integrin αvβ6 (P18564 22-707): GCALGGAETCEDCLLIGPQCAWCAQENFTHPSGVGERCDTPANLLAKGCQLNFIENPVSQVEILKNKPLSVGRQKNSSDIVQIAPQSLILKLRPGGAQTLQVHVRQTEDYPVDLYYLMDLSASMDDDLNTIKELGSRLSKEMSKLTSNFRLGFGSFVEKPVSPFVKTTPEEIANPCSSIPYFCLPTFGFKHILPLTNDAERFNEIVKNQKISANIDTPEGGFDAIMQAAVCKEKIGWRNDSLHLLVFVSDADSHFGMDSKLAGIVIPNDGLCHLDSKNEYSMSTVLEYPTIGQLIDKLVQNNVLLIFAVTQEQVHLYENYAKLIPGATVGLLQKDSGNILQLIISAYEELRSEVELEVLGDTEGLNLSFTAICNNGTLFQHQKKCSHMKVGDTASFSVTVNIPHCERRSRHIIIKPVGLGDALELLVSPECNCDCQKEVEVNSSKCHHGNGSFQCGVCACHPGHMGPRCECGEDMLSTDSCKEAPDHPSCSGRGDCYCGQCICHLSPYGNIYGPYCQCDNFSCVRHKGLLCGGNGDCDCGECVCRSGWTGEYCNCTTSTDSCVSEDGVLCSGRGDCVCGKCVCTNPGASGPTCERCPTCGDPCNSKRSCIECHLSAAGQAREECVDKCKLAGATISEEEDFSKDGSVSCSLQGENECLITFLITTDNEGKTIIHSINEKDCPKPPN
row,IC50 [nM],Structure (SMILES)
1,50 to 250,O=C(N[C@@H](CCN1CC(CCc2ccc3c(n2)NCCC3)CC(F)(F)C1)C(=O)O)c1ccccc1 (some centres unmarked) [Compound 41]
2,< 50,O=C(NC(CCN1CC[C@@H](CCc2ccc3c(n2)NCCC3)C1)C(=O)O)c1c(Cl)cncc1Cl (some centres unmarked) [20a and 20c]
3,> 1000,Cc1cc(C)n(-c2cccc(C(=O)N[C@@H](CCN3CC[C@@H](OCc4ccc5c(n4)NCCC5)C3)C(=O)O)c2)n1 [Compound 113]
4,< 50,O=C(N[C@@H](CCN1CC[C@@H](CCc2ccc3c(n2)NCCC3)C1)C(=O)O)c1cccc(F)c1F [Compound 67]
5,50 to 250,Cn1cc(C(=O)N[C@@H](CCN2CC[C@@H](CCc3ccc4c(n3)NCCC4)C2)C(=O)O)cn1 [Compound 69]
6,< 50,Cn1ncc2ccc(C(=O)N[C@@H](CCN3CCC[C@](F)(CCc4ccc5c(n4)NCCC5)C3)C(=O)O)cc21 [Compound 110]
7,> 1000,CC(C)(C(=O)N[C@@H](CCN1CC(CCc2ccc3c(n2)NCCC3)C1)C(=O)O)c1cccnc1 [Compound 144]
8,< 50,"Cn1ncc2c(C(=O)N[C@@H](CCN3CC[C@@H](CCc4ccc5c(n4)NCCC5)C3)C(=O)O)cccc21 [Compound 27a, (S)-2-(1-methyl-1H-indazole-4-carboxamido)-4-((R)-3-(2-(5,6,7,8-tetrahydro-1,8-naphthyridin-2-yl)ethyl)pyrrolidin-1-yl)butanoic acid]"
9,< 50,O=C(N[C@H](CCN1CC[C@@H](CCc2ccc3c(n2)NCCC3)C1)C(=O)O)c1cccc(-c2cscn2)c1 [Compound 85]
10,< 50,Cc1cc(C)n(-c2cccc(C(=O)NC(CCN3CC[C@@H](CCc4ccc5c(n4)NCCC5)C3)C(=O)O)c2)n1 (some centres unmarked) [13a and 13c]
11,250 to 1000,O=C(N[C@@H](CCN1CC(CCc2ccc3c(n2)NCCC3)C1)C(=O)O)c1c(Cl)cccc1Cl [Compound 139]
12,< 50,"Cc1cc(C)n(-c2cccc(C(=O)N[C@H](CCN3CC[C@@H](CCc4ccc5c(n4)NCCC5)C3)C(=O)O)c2)n1 [Compound 13c, (R)-2-(3-(3,5-dimethyl-1H-pyrazol-1-yl)benzamido)-4-((R)-3-(2-(5,6,7,8-tetrahydro-1,8-naphthyridin-2-yl)ethyl)pyrrolidin-1-yl)butanoic acid]"
13,< 50,Cn1nccc1C(=O)N[C@@H](CCN1CC[C@@H](CCc2ccc3c(n2)NCCC3)C1)C(=O)O [Compound 49]
14,50 to 250,O=C(O)[C@H](CCN1CC[C@@H](CCc2ccc3c(n2)NCCC3)C1)NC(=O)[C@@H]1CCN1Cc1ccccc1 [Compound 81]
15,250 to 1000,Cn1cc(-c2nn(C)c3c(C(=O)N[C@@H](CCN4CC[C@@H](CCc5ccc6c(n5)NCCC6)C4)C(=O)O)cccc23)cn1 [Compound 102]
16,< 50,O=C(N[C@@H](CCN1CC[C@@H](CCc2ccc3c(n2)NCCC3)C1)C(=O)O)c1cccc(-c2ncco2)c1 [Compound 59]
17,50 to 250,"O=C(N[C@@H](CCN1CC[C@@H](CCc2ccc3c(n2)NCCC3)C1)C(=O)O)c1cccnc1 [Compound 19a, (S)-2-(nicotinamido)-4-((R)-3-(2-(5,6,7,8-tetrahydro-1,8-naphthyridin-2-yl)ethyl)pyrrolidin-1-yl)butanoic acid]"
18,< 50,"Cn1ncc2cccc(C(=O)N[C@@H](CCN3CC[C@@H](CCc4ccc5c(n4)NCCC5)C3)C(=O)O)c21 [Compound 28a, (S)-2-(1-methyl-1H-indazole-7-carboxamido)-4-((R)-3-(2-(5,6,7,8-tetrahydro-1,8-naphthyridin-2-yl)ethyl)pyrrolidin-1-yl)butanoic acid]"
19,50 to 250,"O=C(N[C@@H](CCN1CC[C@@H](CCc2ccc3c(n2)NCCC3)C1)C(=O)O)c1ccccc1N1CCOCC1 [Compound 14a, (S)-2-(2-morpholinobenzamido)-4-((R)-3-(2-(5,6,7,8-tetrahydro-1,8-naphthyridin-2-yl)ethyl)pyrrolidin-1-yl)butanoic acid]"
20,< 50,Cc1cc(C)n(-c2cccc(C(=O)N[C@@H](CCN3CCC[C@@](F)(CCc4ccc5c(n4)NCCC5)C3)C(=O)O)c2)n1 [Compound 53]
21,< 50,Cc1cccc(C)c1C(=O)NC(CCN1CC[C@@H](CCc2ccc3c(n2)NCCC3)C1)C(=O)O (some centres unmarked) [4a and 4c]
22,< 50,CCC(CC)C(=O)N[C@@H](CCN1CC[C@@H](CCc2ccc3c(n2)NCCC3)C1)C(=O)O [Compound 95]
23,< 50,CC(C)(C(=O)N[C@@H](CCN1CC[C@@H](CCc2ccc3c(n2)NCCC3)C1)C(=O)O)c1ccccc1 [Compound 44]
24,50 to 250,O=C(N[C@@H](CCN1CC(CCc2ccc3c(n2)NCCC3)C(F)(F)C1)C(=O)O)c1ccccc1 (some centres unmarked) [Compound 39]
25,< 50,"Cn1ncc2ccc(C(=O)N[C@@H](CCN3CC[C@@H](CCc4ccc5c(n4)NCCC5)C3)C(=O)O)cc21 [Compound 24a, (S)-2-(1-methyl-1H-indazole-6-carboxamido)-4-((R)-3-(2-(5,6,7,8-tetrahydro-1,8-naphthyridin-2-yl)ethyl)pyrrolidin-1-yl)butanoic acid]"
26,< 50,"O=C(N[C@@H](CCN1CC[C@@H](CCc2ccc3c(n2)NCCC3)C1)C(=O)O)c1c(Cl)cccc1Cl [Compound 6a, (S)-2-(2,6-dichlorobenzamido)-4-((R)-3-(2-(5,6,7,8-tetrahydro-1,8-naphthyridin-2-yl)ethyl)pyrrolidin-1-yl)butanoic acid]"
27,< 50,"O=C(N[C@@H](CCN1CC[C@@H](CCc2ccc3c(n2)NCCC3)C1)C(=O)O)c1ccncc1 [Compound 18a, (S)-2-(isonicotinamido)-4-((R)-3-(2-(5,6,7,8-tetrahydro-1,8-naphthyridin-2-yl)ethyl)pyrrolidin-1-yl)butanoic acid]"
28,< 50,N#Cc1cc(Cl)c(C(=O)NC(CCN2CC[C@@H](CCc3ccc4c(n3)NCCC4)C2)C(=O)O)c(Cl)c1 (some centres unmarked) [7a and 7c]
29,< 50,O=C(N[C@@H](CCN1CC[C@@H](CCc2ccc3c(n2)NCCC3)C1)C(=O)O)C1CCOCC1 [Compound 38]
30,< 50,O=C(N[C@H](CCN1CC[C@@H](CCc2ccc3c(n2)NCCC3)C1)C(=O)O)c1cccc(-c2cncs2)c1 [Compound 84]

# The next lines start with the compound.
row,Structure (SMILES),IC50 [nM]
1,O=C(N[C@@H](CCN1CCC[C@@](F)(CCc2ccc3c(n2)NCCC3)C1)C(=O)O)c1c(Cl)cccc1Cl [Compound 101],250 to 1000
2,O=C(O)[C@H](CCN1CC(OCCc2ccc3c(n2)NCCC3)C1)NC(=O)[C@@H]1CCCN1Cc1ccccc1 [Compound 123],< 50
3,O=C(N[C@@H](CCN1CCC[C@@](F)(CCc2ccc3c(n2)NCCC3)C1)C(=O)O)c1cc(F)cc(C(F)(F)F)c1 [Compound 105],50 to 250
4,O=C(N[C@@H](CCN1CCC[C@](F)(CCc2ccc3c(n2)NCCC3)C1)C(=O)O)c1cccc(F)c1Cl [Compound 103],< 50
5,O=C(O)[C@H](CCN1CC[C@@H](CCc2ccc3c(n2)NCCC3)C1)NC(=O)[C@@H]1CCCN1CC1CC1 [Compound 91],50 to 250
6,O=C(N[C@@H](CCN1CC(OCCc2ccc3c(n2)NCCC3)C1)C(=O)O)c1c(Cl)cccc1Cl [Compound 115],< 50
7,CCC(CC)C(=O)N[C@@H](CCN1CCC[C@](F)(CCc2ccc3c(n2)NCCC3)C1)C(=O)O [Compound 108],250 to 1000
8,O=C(N[C@@H](CCN1CC(OCCc2ccc3c(n2)NCCC3)C1)C(=O)O)[C@H]1CCN(c2ccccn2)C1 [Compound 132],50 to 250
9,O=C(O)[C@H](CCN1CC[C@@H](OCCc2ccc3c(n2)NCCC3)C1)NC(=O)[C@@H]1CCCN1Cc1ccccc1 [Compound 121],250 to 1000
10,CC(C)(C(=O)N[C@@H](CCN1CC[C@@H](OCCc2ccc3c(n2)NCCC3)C1)C(=O)O)c1ccccc1 [Compound 118],250 to 1000
11,O=C(NC1CCN(CC[C@H](NC(=O)C2CCC(F)(F)CC2)C(=O)O)CC1)c1ccc2c(n1)NCCC2 [Compound 33],> 1000
12,O=C(N[C@@H](CCN1CCC[C@](F)(CCc2ccc3c(n2)NCCC3)C1)C(=O)O)c1cc(F)cc(F)c1 [Compound 104],< 50
13,COC(=O)N1CCC[C@@H](C(=O)N[C@@H](CCN2CC[C@@H](CCc3ccc4c(n3)NCCC4)C2)C(=O)O)C1 [Compound 80],< 50
14,O=C(N[C@@H](CCN1C2CCC1C(CCc1ccc3c(n1)NCCC3)C2)C(=O)O)c1cc(F)cc(C(F)(F)F)c1 (some centres unmarked) [Compound 140],> 1000
15,O=C(O)[C@H](CCN1CC[C@@H](CCc2ccc3c(n2)NCCC3)C1)NC(=O)[C@@H]1CCCCN1C(=O)C1CCC1 [Compound 74],< 50
16,CC(C)(C)OC(=O)N[C@@H](CCN1CC[C@@H](OCc2ccc3c(n2)NCCC3)C1)C(=O)O [Compound 111],> 1000
17,O=C(N[C@@H](CCN1CC(OCCc2ccc3c(n2)NCCC3)C1)C(=O)O)[C@@H]1CCN(c2ccccn2)C1 [Compound 131],50 to 250
18,O=C(N[C@@H](CCN1CC[C@@](F)(CCc2ccc3c(n2)NCCC3)C1)C(=O)O)c1c(Cl)cccc1Cl [Compound 63],50 to 250
19,O=C(N[C@@H](CCN1CCC[C@@](F)(CCc2ccc3c(n2)NCCC3)C1)C(=O)O)c1cccc(N2CCOCC2)c1 [Compound 96],50 to 250
20,CCCCC(=O)N1CCC[C@@H](C(=O)N[C@@H](CCN2CC[C@@H](CCc3ccc4c(n3)NCCC4)C2)C(=O)O)C1 [Compound 78],< 50
